Like-named read-outs stand apart in the source and are kept apart here. Numbered stars: 1 amine (or outer) side, 2 acyl side, 3 side chain; on linkers, the order of the positions; unused ones are H or OH. Bridge positions count the residues as written; N and C are the ends. Square brackets hold non-standard residues; d marks the D form. Peptide text beside a SMILES is read from it. * marks the point of attachment. Trp(βS-Me,7-OMe) = COc1cccc2c([C@H](C)[C@H](N)C(=O)O)c[nH]c12; Phe(3R-OH) = O=C([C@@H](N[*:1])[C@H](O[*:3])c1ccccc1)[*:2]; X49 = C[N+](C)(C)CC(=O)N[C@H]1C[C@H](C(=O)[*:2])N([*:1])C1; Phe(4-SO2NH2) = N[C@@H](Cc1ccc(S(N)(=O)=O)cc1)C(=O)O; X54 = O=C(O)c1c(F)cc(C[C@H](N[*:1])C(=O)[*:2])cc1F; Trp(7-CN) = N#Cc1cccc2c(C[C@H](N)C(=O)O)c[nH]c12; Trp(7-Cl) = N[C@@H](Cc1c[nH]c2c(Cl)cccc12)C(=O)O; Phe(4-CONH2) = NC(=O)c1ccc(C[C@H](N)C(=O)O)cc1; Phe(4-COOH) = N[C@@H](Cc1ccc(C(=O)O)cc1)C(=O)O; Trp(7-aza) = N[C@@H](Cc1c[nH]c2ncccc12)C(=O)O; Pip(5R-OH) = O=C(O)[C@@H]1CC[C@@H](O)CN1; X1 = O=C([C@@H]1CC[C@H](N[*:1])C1)[*:2]; Ala(2-furyl) = N[C@@H](Cc1ccco1)C(=O)O; Pip(4-aza) = O=C(O)[C@@H]1CNCCN1; 4Pal = N[C@@H](Cc1ccncc1)C(=O)O; NMeE = CN[C@@H](CCC(=O)O)C(=O)O; dHyp = O=C(O)[C@H]1C[C@H](O)CN1; αMeS = C[C@](N)(CO)C(=O)O; Carboxymethyl = O=C(O)C*; Nle = CCCC[C@H](N)C(=O)O; Sar = CNCC(=O)O
What was measured:
[1] = molecular target: T1, human soluble TNFR1 (sTNFR1) (Homo sapiens, UniProt P19438); assay: Human sTNFR1-peptide displacement assay (LanthaScreen Eu TR-FRET binding assay)
T1 construct: made in house; host or cells: Sf21 (baculovirus)
T1 sequence (P19438 with tags, fused parts or gaps): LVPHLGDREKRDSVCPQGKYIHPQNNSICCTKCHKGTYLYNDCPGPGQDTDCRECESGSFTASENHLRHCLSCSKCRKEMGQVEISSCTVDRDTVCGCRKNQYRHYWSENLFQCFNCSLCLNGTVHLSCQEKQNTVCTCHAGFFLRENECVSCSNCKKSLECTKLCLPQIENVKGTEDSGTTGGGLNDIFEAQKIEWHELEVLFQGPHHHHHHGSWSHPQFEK
Outline: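 Readout is the 665/615 nm TR-FRET ratio (Eu anti-His donor, streptavidin-Alexa647 acceptor), normalized to DMSO and saturating displacer, fit by Morrison-based five-parameter logistic for Kd^app. His-tagged sTNFR1 (1-211) prebound to 100 nM biotinylated peptide SEQ ID NO.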

[2] = molecular target: T2, TNFα-induced NF-κB signal transduction pathway (TNFR1 signaling) in THP-1 cells (Homo sapiens, UniProt P19438); assay: THP-1 Lucia NF-κB reporter cell assay, inhibition of TNFα-induced NF-κB signaling; assay type: cell-based; details: THP-1 NF-κB Lucia reporter cells, 10 ng/mL TNFα, 16-18 h, secreted luciferase; read-out: THP-1 IC50
T2 sequence (P19438 30-455): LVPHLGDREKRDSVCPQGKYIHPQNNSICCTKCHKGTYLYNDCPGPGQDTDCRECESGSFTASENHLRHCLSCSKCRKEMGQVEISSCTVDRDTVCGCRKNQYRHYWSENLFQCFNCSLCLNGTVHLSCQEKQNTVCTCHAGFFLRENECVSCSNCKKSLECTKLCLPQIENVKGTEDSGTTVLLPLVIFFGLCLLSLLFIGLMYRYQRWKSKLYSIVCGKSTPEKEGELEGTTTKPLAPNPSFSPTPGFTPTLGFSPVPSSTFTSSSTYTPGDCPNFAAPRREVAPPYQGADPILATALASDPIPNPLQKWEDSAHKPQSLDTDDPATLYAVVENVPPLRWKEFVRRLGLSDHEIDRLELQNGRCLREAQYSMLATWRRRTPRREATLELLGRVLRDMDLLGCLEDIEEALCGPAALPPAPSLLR
Outline: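 THP-1 Lucia NF-κB cells, 20k/well, no selection antibiotics; peptide pre-inc 1 h 37 °C; + recombinant human TNFα 10 ng/mL final; o.n.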

Structure (SMILES) | IC50 [1] | Kd [1] | IC50 [2] | Kd ([1]; displacement of biotinylated peptide SEQ ID NO. 1 from sTNFR1, 20 point titration, 5-parameter fit based on Morrison equation (tight binding), read-out: TR-FRET Kd^app)
CCCC[C@@H]1NC(=O)CSC[C@@H](C(N)=O)NC(=O)[C@H]([C@@H](C)c2c[nH]c3c(OC)cccc23)NC(=O)CN(C)C(=O)[C@H](Cc2ccc(O)cc2)NC(=O)[C@H](Cc2ccc(C(=O)O)cc2)NC(=O)[C@](C)(CO)NC(=O)[C@H](Cc2c[nH]c3c(Cl)cccc23)NC(=O)[C@H](Cc2ccncc2)NC(=O)[C@H](CC(N)=O)NC(=O)[C@H](CCC(=O)O)N(C)C(=O)[C@H](Cc2c[nH]c3ncccc23)NC(=O)[C@H]([C@H](O)c2ccccc2)NC(=O)[C@H](Cc2ccncc2)NC1=O [SEQ ID NO. 211] ({CH2CO}-[Nle][4Pal][Phe(3R-OH)][Trp(7-aza)][NMeE]N[4Pal][Trp(7-Cl)][αMeS][Phe(4-COOH)]Y[Sar][Trp(βS-Me,7-OMe)]C-NH2; thioether N-14) | 0.79 nM | 0.63 nM | 3.3 nM | 
CCCC[C@@H]1NC(=O)CSC[C@@H](C(N)=O)NC(=O)[C@H]([C@@H](C)c2c[nH]c3c(OC)cccc23)NC(=O)CN(C)C(=O)[C@H](Cc2ccc(O)cc2)NC(=O)[C@H](Cc2ccc(C(=O)O)cc2)NC(=O)[C@](C)(CO)NC(=O)[C@H](Cc2c[nH]c3c(Cl)cccc23)NC(=O)[C@H](Cc2ccco2)NC(=O)[C@H](CC(N)=O)NC(=O)[C@H]2CCCN2C(=O)[C@H](Cc2c[nH]c3ccccc23)NC(=O)[C@@H]2CNCCN2C(=O)[C@H](Cc2ccncc2)NC1=O [SEQ ID NO. 236] ({CH2CO}-[Nle][4Pal][Pip(4-aza)]W[dP]N[Ala(2-furyl)][Trp(7-Cl)][αMeS][Phe(4-COOH)]Y[Sar][Trp(βS-Me,7-OMe)]C-NH2; thioether N-14) | 0.9 nM |  | 4.2 nM | 
CCCC[C@@H]1NC(=O)[C@@H]2CC[C@@H](C2)NC(=O)[C@H]([C@@H](C)c2c[nH]c3c(OC)cccc23)NC(=O)CN(C)C(=O)[C@H](Cc2ccc(OCC(=O)O)cc2)NC(=O)[C@H](Cc2ccc(C(N)=O)cc2)NC(=O)[C@](C)(CO)NC(=O)[C@H](Cc2c[nH]c3c(C#N)cccc23)NC(=O)[C@H](Cc2ccc(OCC(=O)O)cc2)NC(=O)[C@H](CC(N)=O)NC(=O)[C@H]2C[C@H](O)CN2C(=O)[C@H](Cc2c[nH]c3ccccc23)NC(=O)[C@@H]2CC[C@@H](O)CN2C(=O)[C@H](Cc2ccncc2)NC1=O [SEQ ID NO. 285] (cyclo([4Pal][Pip(5R-OH)]W[dHyp]NY(Carboxymethyl)[Trp(7-CN)][αMeS][Phe(4-CONH2)]Y(Carboxymethyl)[Sar][Trp(βS-Me,7-OMe)][X1][Nle])) |  | 0.04 nM | 0.6 nM | 
CCCC[C@@H]1NC(=O)[C@@H]2CC[C@@H](C2)NC(=O)[C@H]([C@@H](C)c2c[nH]c3c(OC)cccc23)NC(=O)CN(C)C(=O)[C@H](Cc2ccc(C(=O)O)cc2)NC(=O)[C@H](Cc2ccc(S(N)(=O)=O)cc2)NC(=O)[C@](C)(CO)NC(=O)[C@H](Cc2c[nH]c3c(C#N)cccc23)NC(=O)[C@H](Cc2ccncc2)NC(=O)[C@H](CC(N)=O)NC(=O)[C@H]2C[C@H](OCC(=O)O)CN2C(=O)[C@H](Cc2c[nH]c3ncccc23)NC(=O)[C@@H]2CC[C@@H](O)CN2C(=O)[C@H](Cc2ccncc2)NC1=O [SEQ ID NO. 31] (cyclo([4Pal][Trp(7-CN)][αMeS][Phe(4-SO2NH2)][Phe(4-COOH)][Sar][Trp(βS-Me,7-OMe)][X1][Nle][4Pal][Pip(5R-OH)][Trp(7-aza)][dHyp](Carboxymethyl)N)) |  |  | 0.4 nM | 0.04 nM
CCCC[C@@H]1NC(=O)[C@@H]2CC[C@@H](C2)NC(=O)[C@H]([C@@H](C)c2c[nH]c3c(OC)cccc23)NC(=O)CN(C)C(=O)[C@H](Cc2cc(F)c(C(=O)O)c(F)c2)NC(=O)[C@H](Cc2ccc(C(N)=O)cc2)NC(=O)[C@](C)(CO)NC(=O)[C@H](Cc2c[nH]c3c(C#N)cccc23)NC(=O)[C@H](Cc2cc(F)c(C(=O)O)c(F)c2)NC(=O)[C@H](CC(N)=O)NC(=O)[C@H]2C[C@H](NC(=O)C[N+](C)(C)C)CN2C(=O)[C@H](Cc2c[nH]c3ncccc23)NC(=O)[C@@H]2CC[C@@H](O)CN2C(=O)[C@H](Cc2ccncc2)NC1=O [SEQ ID NO. 193] (cyclo([4Pal][Pip(5R-OH)][Trp(7-aza)][X49]N[X54][Trp(7-CN)][αMeS][Phe(4-CONH2)][X54][Sar][Trp(βS-Me,7-OMe)][X1][Nle])) |  | 0.15 nM | 1 nM | 
